In PubChem BioAssay AID328 (DTP/NCI, 2004):
Values joined by “and” are separate entries in the source; they are usually repeats but may differ in a detail not shown here. Equal entries are not always repeated. Inconclusive results and toxic doses are left out.

System: BDF1 mice, P388 leukemia ip, median survival T/C
Test: NCI In Vivo Anticancer Drug Screen. Data for tumor model P388 Leukemia (intraperitoneal) in B6D2F1 (BDF1) mice
Settings: endpoint: median survival time, higher = longer survival
Summary of the method: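 Mice carrying the transplantable tumour receive compound or vehicle. Survival is followed in each arm, and the treated measure is divided by the vehicle measure.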

[1] = dose: 100.0 mg/kg/injection, schedule: Q01DX001 (ip), vehicle: saline with Tween-80
[2] = dose: 200.0 mg/kg/injection, schedule: Q01DX001 (ip), vehicle: saline with Tween-80
[3] = dose: 50.0 mg/kg/injection, schedule: Q04DX003 (ip), vehicle: saline with Tween-80
[4] = dose: 100.0 mg/kg/injection, schedule: Q04DX003 (ip), vehicle: saline with Tween-80
[5] = dose: 25.0 mg/kg/injection, schedule: Q01DX009 (ip), vehicle: Klucel (hydroxypropylcellulose) (HPC)
[6] = dose: 100.0 mg/kg/injection, schedule: Q01DX009 (ip), vehicle: Klucel (hydroxypropylcellulose) (HPC)
[7] = dose: 100.0 mg/kg/injection, schedule: Q04DX003 (ip), vehicle: saline
[8] = dose: 100.0 mg/kg/injection, schedule: Q01DX009 (ip), vehicle: saline
[9] = dose: 200.0 mg/kg/injection, schedule: Q01DX009 (ip), vehicle: saline
[10] = dose: 400.0 mg/kg/injection, schedule: Q01DX009 (ip), vehicle: saline
[11] = dose: 25.0 mg/kg/injection, schedule: Q01DX009 (ip), vehicle: saline with Tween-80
[12] = dose: 50.0 mg/kg/injection, schedule: Q01DX009 (ip), vehicle: saline with Tween-80
[13] = dose: 100.0 mg/kg/injection, schedule: Q01DX009 (ip), vehicle: saline with Tween-80
[14] = dose: 200.0 mg/kg/injection, schedule: Q04DX003 (ip), vehicle: saline with Tween-80
[15] = dose: 400.0 mg/kg/injection, schedule: Q04DX003 (ip), vehicle: saline with Tween-80
[16] = dose: 50.0 mg/kg/injection, schedule: Q01DX001 (ip), vehicle: saline with Tween-80

FC(F)(F)c1nc2nc(Cl)c(Cl)nc2s1
T/C (dose: 0.78 mg/kg/injection, schedule: Q04DX003 (ip), vehicle: other): 104 % of control
T/C (dose: 1.56 mg/kg/injection, schedule: Q01DX009 (ip), vehicle: other): 99 % of control
T/C (dose: 1.56 mg/kg/injection, schedule: Q04DX003 (ip), vehicle: other): 117 % of control
T/C (dose: 3.12 mg/kg/injection, schedule: Q01DX009 (ip), vehicle: other): 90 % of control
T/C (dose: 3.12 mg/kg/injection, schedule: Q04DX003 (ip), vehicle: other): 98 % of control
T/C (dose: 6.25 mg/kg/injection, schedule: Q01DX009 (ip), vehicle: other): 90 % of control
T/C (dose: 6.25 mg/kg/injection, schedule: Q04DX003 (ip), vehicle: other): 121 % of control
T/C (dose: 12.5 mg/kg/injection, schedule: Q01DX009 (ip), vehicle: other): 99 % of control
T/C (dose: 12.5 mg/kg/injection, schedule: Q04DX003 (ip), vehicle: other): 111 % of control

CCOc1ccccc1NC(=O)c1ccc(Cl)cc1
T/C [1]: 90 % of control
T/C [2]: 90 % of control
T/C (dose: 400.0 mg/kg/injection, schedule: Q01DX001 (ip), vehicle: saline with Tween-80): 95 % of control

N/N=C1/CCN2CCCc3cccc1c32
T/C [3]: 100 % of control
T/C [4]: 110 % of control

CSc1ncnc2c1ncn2C1CCCO1 (stereo not drawn)
T/C [5]: 95 % of control
T/C (dose: 50.0 mg/kg/injection, schedule: Q01DX009 (ip), vehicle: Klucel (hydroxypropylcellulose) (HPC)): 119 % of control
T/C [6]: 109 % of control
T/C [7]: 104 % of control
T/C (dose: 150.0 mg/kg/injection, schedule: Q01DX009 (ip), vehicle: Klucel (hydroxypropylcellulose) (HPC)): 87 % of control

O=C1c2cccc(O)c2C(=O)c2c(OC3OC(CO)C(OC4OC(CO)C(O)C(O)C4O)C(O)C3O)cccc21 (stereo not drawn)
T/C [7]: 103 % of control
T/C (dose: 200.0 mg/kg/injection, schedule: Q04DX003 (ip), vehicle: saline): 119 % of control
T/C (dose: 400.0 mg/kg/injection, schedule: Q04DX003 (ip), vehicle: saline): 112 % of control

CCCCCCC(C)[N+](C)(C)C (stereo not drawn)
T/C (dose: 6.25 mg/kg/injection, schedule: Q04DX003 (ip), vehicle: saline): 116 % of control
T/C (dose: 12.5 mg/kg/injection, schedule: Q04DX003 (ip), vehicle: saline): 100 % of control
T/C (dose: 25.0 mg/kg/injection, schedule: Q04DX003 (ip), vehicle: saline): 113 % of control

NC(=O)c1csc(C2OC(CO)C(O)C2O)n1 (stereo not drawn)
T/C (dose: 330.0 mg/kg/injection, schedule: Q01DX009 (ip), vehicle: water): 213 % of control
T/C (dose: 500.0 mg/kg/injection, schedule: Q01DX009 (ip), vehicle: water): 243 % of control
T/C (dose: 750.0 mg/kg/injection, schedule: Q01DX009 (ip), vehicle: water): 277 % of control

Nc1nc(N)c2cc(CNc3ccc(C(=O)NC(C(=O)O)C(=O)O)cc3)ccc2n1
T/C (dose: 0.15 mg/kg/injection, schedule: Q01DX009 (ip), vehicle: saline): 163 % of control

CN(C)CCCNC1=C(Cl)C(=O)c2ccccc2C1=O
T/C (dose: 6.25 mg/kg/injection, schedule: Q01DX009 (ip), vehicle: Klucel (hydroxypropylcellulose) (HPC)): 114 % of control
T/C (dose: 12.5 mg/kg/injection, schedule: Q01DX009 (ip), vehicle: Klucel (hydroxypropylcellulose) (HPC)): 109 % of control
T/C [5]: 116 % of control

COC1/C=C/O[C@@]2(C)Oc3c(C)c(O)c4c(O)c(cc(O)c4c3C2=O)NC(=O)/C(C)=C\C=C\[C@H](C)C(O)[C@@H](C)[C@@H](O)[C@@H](C)[C@H](OC(C)=O)[C@@H]1C (stereo partly drawn)
T/C [8]: 123 % of control
T/C [9]: 114 % of control
T/C [10]: 119 % of control

COc1ccc(OC)c(NC(=O)Nc2c(C)n(C)n(-c3ccccc3)c2=O)c1
T/C [6]: 105 % of control
T/C (dose: 200.0 mg/kg/injection, schedule: Q01DX009 (ip), vehicle: Klucel (hydroxypropylcellulose) (HPC)): 90 % of control
T/C (dose: 400.0 mg/kg/injection, schedule: Q01DX009 (ip), vehicle: Klucel (hydroxypropylcellulose) (HPC)): 105 % of control

Cc1ccc(CC2NC(=O)NC2=O)cc1 (stereo not drawn)
T/C (dose: 6.25 mg/kg/injection, schedule: Q01DX009 (ip), vehicle: saline with Tween-80): 104 % of control
T/C (dose: 12.5 mg/kg/injection, schedule: Q01DX009 (ip), vehicle: saline with Tween-80): 88 % of control and 99 % of control
T/C [11]: 90 % of control and 98 % of control
T/C [12]: 98 % of control and 120 % of control
T/C [3]: 122 % of control
T/C [13]: 87 % of control and 118 % of control
T/C [4]: 122 % of control
T/C (dose: 200.0 mg/kg/injection, schedule: Q01DX009 (ip), vehicle: saline with Tween-80): 111 % of control
T/C [14]: 105 % of control
T/C (dose: 400.0 mg/kg/injection, schedule: Q01DX009 (ip), vehicle: saline with Tween-80): 96 % of control
T/C [15]: 105 % of control

CCC(SC(CC(=O)O)C(=O)O)C(=O)O (stereo not drawn)
T/C (dose: 12.5 mg/kg/injection, schedule: Q01DX001 (ip), vehicle: saline with Tween-80): 100 % of control
T/C (dose: 25.0 mg/kg/injection, schedule: Q01DX001 (ip), vehicle: saline with Tween-80): 99 % of control
T/C [16]: 90 % of control

CC[N+](CC)(CC)CCCCCCCC[N+](CC)(CC)CC
T/C (dose: 0.25 mg/kg/injection, schedule: Q01DX009 (ip), vehicle: water): 115 % of control
T/C (dose: 0.5 mg/kg/injection, schedule: Q01DX009 (ip), vehicle: water): 92 % of control
T/C (dose: 0.5 mg/kg/injection, schedule: Q04DX003 (ip), vehicle: water): 100 % of control
T/C (dose: 0.78 mg/kg/injection, schedule: Q04DX003 (ip), vehicle: water): 112 % of control
T/C (dose: 1.0 mg/kg/injection, schedule: Q01DX009 (ip), vehicle: water): 105 % of control and 106 % of control
T/C (dose: 1.0 mg/kg/injection, schedule: Q04DX003 (ip), vehicle: water): 88 % of control
T/C (dose: 1.56 mg/kg/injection, schedule: Q04DX003 (ip), vehicle: water): 112 % of control
T/C (dose: 2.0 mg/kg/injection, schedule: Q01DX009 (ip), vehicle: water): 106 % of control
T/C (dose: 3.12 mg/kg/injection, schedule: Q04DX003 (ip), vehicle: water): 112 % of control

CCCCCCCCCCCCCCCCCOc1ccc(I)cc1
T/C [16]: 95 % of control
T/C [1]: 100 % of control
T/C [2]: 90 % of control

C/C=C1/CN(C)C2Cc3c([nH]c4ccccc34)C(c3cc4c5c([nH]c4cc3OC)C3(C(=O)OC)CC4CC(CC)C3N(CC5)C4)CC1C2C(=O)OC (stereo not drawn)
T/C (dose: 1.3 mg/kg/injection, schedule: Q01DX009 (ip), vehicle: alcohol): 88 % of control
T/C (dose: 4.0 mg/kg/injection, schedule: Q01DX009 (ip), vehicle: alcohol): 87 % of control
T/C (dose: 12.0 mg/kg/injection, schedule: Q01DX009 (ip), vehicle: alcohol): 88 % of control

CCc1ccc(C(=O)N/N=C(\C)[C@]2(O)Cc3c(O)c4c(c(O)c3[C@@H](OC3CC(N)C(O)C(C)O3)C2)C(=O)c2c(OC)cccc2C4=O)cc1 (stereo partly drawn)
T/C (dose: 1.56 mg/kg/injection, schedule: Q01DX009 (ip), vehicle: water): 117 % of control
T/C (dose: 3.12 mg/kg/injection, schedule: Q01DX009 (ip), vehicle: water): 161 % of control
T/C (dose: 6.25 mg/kg/injection, schedule: Q01DX009 (ip), vehicle: water): 152 % of control and 166 % of control
T/C (dose: 12.5 mg/kg/injection, schedule: Q01DX009 (ip), vehicle: water): 95 % of control and 122 % of control

CCOC(=O)C(CSCSC)NC(=O)/C=C/c1cccnc1 (stereo not drawn)
T/C [8]: 96 % of control
T/C [4]: 91 % of control
T/C [9]: 106 % of control
T/C [14]: 91 % of control
T/C [10]: 104 % of control
T/C [15]: 120 % of control

C=CCCCCCCCCC(=O)NC[n+]1cccc(O)c1
T/C [11]: 110 % of control
T/C [12]: 100 % of control
T/C [13]: 100 % of control

O=C1NC(=O)C(c2ccc(O)cc2)N1 (stereo not drawn)
T/C [4]: 100 % of control
T/C [14]: 109 % of control
T/C [15]: 118 % of control
